As a reminder, the IC50 is the point on the concentration scale where inhibition reaches its midpoint.

Where a SMILES comes first, the peptide text is derived from it.

Data set [1] can be described thus: Antioxidant activity assessed as ABTS radical scavenging activity at 80 uM after 10 mins relative to control. The format is functional.
In data set [2] the target is T1, Tyrosinase (Agaricus bisporus, UniProt O42713).
T1 sequence (O42713 whole entry): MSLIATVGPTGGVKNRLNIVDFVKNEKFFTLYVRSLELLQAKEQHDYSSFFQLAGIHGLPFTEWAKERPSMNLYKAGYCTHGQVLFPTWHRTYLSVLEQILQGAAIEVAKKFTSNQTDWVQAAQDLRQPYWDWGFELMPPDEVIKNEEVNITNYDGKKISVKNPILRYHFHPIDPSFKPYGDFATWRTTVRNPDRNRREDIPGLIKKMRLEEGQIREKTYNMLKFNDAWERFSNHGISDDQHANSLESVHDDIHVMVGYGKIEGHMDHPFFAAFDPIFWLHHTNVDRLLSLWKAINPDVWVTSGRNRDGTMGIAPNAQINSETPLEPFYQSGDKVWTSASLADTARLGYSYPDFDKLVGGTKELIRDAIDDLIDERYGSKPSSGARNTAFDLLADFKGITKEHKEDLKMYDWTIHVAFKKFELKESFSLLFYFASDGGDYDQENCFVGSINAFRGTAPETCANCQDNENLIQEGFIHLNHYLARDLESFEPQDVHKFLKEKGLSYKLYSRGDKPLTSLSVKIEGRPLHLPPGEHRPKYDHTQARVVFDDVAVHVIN
Description: Inhibition of mushroom tyrosinase using L-dopa as substrate assessed as reduction in dopachrome production after 20 mins by spectrophotometry.

A short description of data set [3]: Antioxidant activity assessed as DPPH free radical scavenging activity at 80 uM after 30 mins relative to control. The format is functional. (The DPPH test is a chemical assay of radical scavenging.)
Data set [4] can be described thus: Reducing power of the compound assessed as reducing Fe3+ power at 80 uM using K3Fe(CN)6 in pH 6.6 phosphate buffer relative to control.
Data set [5] relates to B16. Description: Cytotoxicity against mouse B16 cells up to 150 uM by MTT assay relative to control. The format is cell-based. In general terms: Formazan colour is commonly taken as a measure of viable cells.
Data set [6] can be described thus: Hemolytic activity against human erythrocytes assessed as amount of hemoglobin released from lysed cells up to 150 uM relative to control. Conditions: read-out: Activity. The format is ADME, cell-based, Erythrocyte.
The subject of data set [7] is HaCaT. Description: Cytotoxicity against human HaCaT cells up to 150 uM by MTT assay relative to control. The format is cell-based.

As to `CC[C@H](C)[C@H](NC(=O)[C@H](CS)NC(=O)[C@H](C)NC(=O)[C@@H](NC(=O)[C@H](CCCNC(=N)N)NC(=O)[C@H](C)NC(=O)[C@@H](NC(=O)[C@H](CC(N)=O)NC(=O)[C@@H](NC(=O)[C@H](CCSC)NC(=O)[C@H](Cc1c[nH]c2ccccc12)NC(=O)[C@H](Cc1cnc[nH]1)NC(=O)[C@@H](NC(=O)[C@@H](N)CS)C(C)C)[C@@H](C)O)[C@@H](C)O)[C@@H](C)O)C(=O)N[C@@H](C)C(=O)N1CCC[C@H]1C(=O)O` (H-CVHWMTNTARTACIAP-OH), the results for the Activity in data set [1], in data set [3] and in data set [4] were 82%, 21% and 0.34, respectively. Besides, the half-maximal inhibitory concentration (IC50) in data set [2] was determined as 176 µM.

For the molecule `CC[C@H](C)[C@H](NC(=O)[C@H](CS)NC(=O)[C@@H](NC(=O)[C@@H](NC(=O)[C@H](CCCNC(=N)N)NC(=O)[C@H](C)NC(=O)[C@@H](NC(=O)[C@H](CC(N)=O)NC(=O)[C@@H](NC(=O)[C@H](CCCNC(=N)N)NC(=O)[C@H](Cc1ccccc1)NC(=O)[C@H](CCCNC(=N)N)NC(=O)[C@@H](NC(=O)[C@@H](N)CS)C(C)C)[C@@H](C)O)[C@@H](C)O)[C@@H](C)O)C(C)C)C(=O)N[C@@H](C)C(=O)N1CCC[C@H]1C(=O)O` (H-CVRFRTNTARTVCIAP-OH), the Activity was 13% in data set [5]; 36% in data set [1]; 43% in data set [3]; 15% in data set [7]; 0.18 in data set [4]. Further, the half-maximal inhibitory concentration (IC50) in data set [2] is 166 µM. In addition, the hemolysis in data set [6] came out at 5%.

Consider `CC(C)[C@H](NC(=O)[C@H](CCCNC(=N)N)NC(=O)[C@H](CS)NC(=O)[C@H](CO)NC(=O)[C@H](CCCNC(=N)N)NC(=O)[C@H](Cc1ccccc1)NC(=O)[C@@H](N)Cc1ccccc1)C(=O)N[C@@H](CS)C(=O)O` (H-FFRSCRVC-OH), for which the Activity turned out to be 5% in data set [5]; 66% in data set [1]; 95% in data set [3]; 5% in data set [7]; 0.19 in data set [4]. For the same molecule, the concentration for half-maximal inhibition (IC50) in data set [2] is 90 µM. The hemolysis in data set [6] amounted to 2%.

In the case of `CC(C)[C@H](NC(=O)[C@H](CO)NC(=O)[C@H](CCCNC(=N)N)NC(=O)[C@H](CS)NC(=O)[C@H](CO)NC(=O)[C@@H](NC(=O)[C@H](CCCNC(=N)N)NC(=O)[C@H](Cc1ccccc1)NC(=O)[C@@H](N)Cc1ccccc1)[C@@H](C)O)C(=O)N[C@@H](CS)C(=O)O` (H-FFRTSCRSVC-OH), the Activity in data set [5] was determined as 9%; in data set [1], 58%; in data set [3], 90%; in data set [7], 13%; in data set [4] it was 0.28. In addition, in data set [2], the IC50 is 127 µM. Also, in data set [6], the hemolysis is 7%.

In the case of `C[C@@H](O)[C@H](NC(=O)[C@H](CO)NC(=O)[C@H](Cc1ccccc1)NC(=O)[C@@H](N)Cc1ccccc1)C(=O)N[C@@H](CO)C(=O)N[C@@H](CS)C(=O)N[C@@H](CCCNC(=N)N)C(=O)N[C@@H](CO)C(=O)NCC(=O)N[C@@H](CS)C(=O)O` (H-FFSTSCRSGC-OH), the Activity in data set [1] came out at 80%; in data set [3], 45%; in data set [4], 0.21. Moreover, in data set [2], the IC50 is 187 µM.

In the case of `C[C@H](NC(=O)[C@H](CO)NC(=O)[C@H](CS)NC(=O)[C@H](CO)NC(=O)[C@@H](NC(=O)[C@H](CCCNC(=N)N)NC(=O)[C@@H](N)Cc1ccccc1)[C@@H](C)O)C(=O)N[C@@H](CS)C(=O)O` (H-FRTSCSAC-OH), the Activity was found to be 8% in data set [5]; 62% in data set [1]; 73% in data set [3]; 7% in data set [7]; 0.23 in data set [4]. Also, in data set [2], the IC50 came to 78 µM. The hemolysis in data set [6] is 2%.

On to `CC[C@H](C)[C@H](NC(=O)[C@H](C)NC(=O)[C@@H]1CCCN1C(=O)[C@@H](NC(=O)[C@@H](N)Cc1ccccc1)C(C)C)C(=O)N[C@@H](CC(C)C)C(=O)N[C@@H](CS)C(=O)N[C@@H](CO)C(=O)N[C@H](C(=O)N[C@@H](CC(C)C)C(=O)N[C@@H](CCCCN)C(=O)N[C@H](C(=O)N[C@@H](CS)C(=O)O)[C@@H](C)O)[C@@H](C)CC` (H-FVPAILCSILKTC-OH), for which the Activity in data set [5] came out at 12%; in data set [1] it was 48%; in data set [3], 74%; in data set [7] it was 11%; in data set [4] it was 0.23. Further, the IC50 in data set [2] was found to be 147 µM. The hemolysis in data set [6] came to 4%.

As for `CC(C)[C@H](NC(=O)[C@H](CCCNC(=N)N)NC(=O)[C@H](Cc1ccccc1)NC(=O)[C@H](CS)NC(=O)[C@H](CCCNC(=N)N)NC(=O)[C@H](CO)NC(=O)[C@@H](N)[C@@H](C)O)C(=O)N[C@@H](CS)C(=O)O` (H-TSRCFRVC-OH), the Activity turned out to be 11% in data set [5]; 50% in data set [1]; 99% in data set [3]; 9% in data set [7]; 0.24 in data set [4]. The IC50 in data set [2] was found to be 106 µM. Further, the hemolysis in data set [6] turned out to be 1%.

For the molecule `CC[C@H](C)[C@H](NC(=O)[C@H](CS)NC(=O)[C@H](CCCNC(=N)N)NC(=O)[C@H](CO)NC(=O)[C@@H](N)[C@@H](C)O)C(=O)N[C@@H](Cc1ccccc1)C(=O)N[C@@H](Cc1ccc(O)cc1)C(=O)N[C@@H](CCCNC(=N)N)C(=O)N[C@@H](CCCNC(=N)N)C(=O)N[C@@H](CS)C(=O)N[C@H](C(=O)N[C@@H](CS)C(=O)N[C@@H](CO)C(=O)O)C(C)C` (H-TSRCIFYRRCVCS-OH), the Activity in data set [5] stood at 27%; in data set [1] it was 61%; in data set [3] it was 60%; in data set [7] it was 29%; in data set [4], 0.24. Further, the IC50 in data set [2] is 128 µM. For the same molecule, the hemolysis in data set [6] came to 21%.

Consider `CC[C@H](C)[C@H](NC(=O)[C@H](CS)NC(=O)[C@H](CCCNC(=N)N)NC(=O)[C@H](CO)NC(=O)[C@@H](N)[C@@H](C)O)C(=O)N[C@@H](Cc1ccccc1)C(=O)N[C@@H](Cc1ccc(O)cc1)C(=O)N[C@@H](CCCNC(=N)N)C(=O)N[C@@H](CCCNC(=N)N)C(=O)N[C@@H](CCCCN)C(=O)N[C@@H](CCCCN)C(=O)N[C@@H](CS)C(=O)N[C@@H](CO)C(=O)O` (H-TSRCIFYRRKKCS-OH), for which the Activity in data set [1] was found to be 85%; in data set [3], 55%; in data set [4] it was 0.21. The IC50 in data set [2] was 153 µM.

With `CC(C)[C@H](N)C(=O)N[C@H](C(=O)N[C@@H](CCCCN)C(=O)N[C@@H](CS)C(=O)N[C@@H](CO)C(=O)N[C@@H](Cc1ccccc1)C(=O)N[C@@H](CCCNC(=N)N)C(=O)N1CCC[C@H]1C(=O)NCC(=O)N[C@@H](CO)C(=O)N1CCC[C@H]1C(=O)N[C@@H](C)C(=O)N1CCC[C@H]1C(=O)N[C@@H](CCCNC(=N)N)C(=O)N[C@@H](CS)C(=O)N[C@@H](CCCCN)C(=O)O)C(C)C` (H-VVKCSFRPGSPAPRCK-OH), the Activity was 13% in data set [5]; 25% in data set [1]; 56% in data set [3]; 10% in data set [7]; 0.18 in data set [4]. Also, the concentration for half-maximal inhibition (IC50) in data set [2] is 199 µM. Also, the hemolysis in data set [6] worked out at 5%.

For the molecule H-TRAFRCVS-OH, the Activity in data set [5] turned out to be 10%; in data set [1], 56%; in data set [3], 80%; in data set [7] it was 11%; in data set [4], 0.25. Besides, the IC50 in data set [2] worked out at 220 µM. Moreover, the hemolysis in data set [6] worked out at 1%.

The values above are taken from ChEMBL document CHEMBL4325834, “De Novo Molecular Design of a Novel Octapeptide That Inhibits In Vivo Melanogenesis and Has Great Transdermal Ability” (J Med Chem, 2018).
